Consider 20 compounds from ChEMBL document CHEMBL1130634, “Quinazolines: combined type 3 and 4 phosphodiesterase inhibitors” (Bioorg Med Chem Lett, 1998).

As a reminder, the IC50 is the concentration at which inhibition is half-maximal. Read a low IC50 as greater potency in that assay.

Assay [1] has as its target T1, 3',5'-cyclic-AMP phosphodiesterase 4B (Rattus norvegicus, UniProt P14646).
T1 sequence (P14646 whole entry): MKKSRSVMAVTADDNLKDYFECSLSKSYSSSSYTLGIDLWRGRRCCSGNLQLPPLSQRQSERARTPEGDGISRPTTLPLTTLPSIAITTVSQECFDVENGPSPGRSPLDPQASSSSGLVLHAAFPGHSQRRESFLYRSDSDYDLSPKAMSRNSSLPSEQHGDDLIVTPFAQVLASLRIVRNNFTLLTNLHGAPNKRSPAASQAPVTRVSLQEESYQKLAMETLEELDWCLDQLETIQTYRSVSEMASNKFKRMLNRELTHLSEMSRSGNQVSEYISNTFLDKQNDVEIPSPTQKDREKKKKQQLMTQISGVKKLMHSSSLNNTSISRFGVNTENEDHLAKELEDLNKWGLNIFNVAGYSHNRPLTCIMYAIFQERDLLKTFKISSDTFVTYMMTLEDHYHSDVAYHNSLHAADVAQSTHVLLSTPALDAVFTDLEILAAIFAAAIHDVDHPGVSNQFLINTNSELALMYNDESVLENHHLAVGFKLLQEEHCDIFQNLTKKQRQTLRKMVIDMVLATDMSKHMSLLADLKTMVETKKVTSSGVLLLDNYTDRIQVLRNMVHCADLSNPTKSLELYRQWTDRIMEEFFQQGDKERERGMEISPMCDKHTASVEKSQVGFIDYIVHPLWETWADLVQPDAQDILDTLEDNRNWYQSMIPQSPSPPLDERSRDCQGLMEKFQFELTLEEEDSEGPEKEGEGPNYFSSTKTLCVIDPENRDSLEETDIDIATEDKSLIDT
The experiment in a line: Evaluated for its ability to inhibit PDE4B.

Assay [2] addresses T2, 3',5'-cyclic-AMP phosphodiesterase 4A (Homo sapiens, UniProt P27815). Description: Evaluated for its ability to inhibit PDE4A.
For assay [3], the target named is 3',5'-cyclic-AMP phosphodiesterase 4D (Homo sapiens, UniProt Q08499). Description: Evaluated for its ability to inhibit PDE4D.
In assay [4] the target is T2, 3',5'-cyclic-AMP phosphodiesterase 4A. Description: Inhibition of PDE4A.
In assay [5] the target is T3, Phosphodiesterase 4 (Rattus norvegicus, UniProt P14270+P14646+P14644+P54748). Description: Inhibition of [3H]-rolipram binding to membrane-bound PDE4.
The next assay concerns the target Phosphodiesterase 3 (Homo sapiens, UniProt Q14432+Q13370). Description: Evaluated for its ability to inhibit PDE3. The format is protein assay.
The target in assay [6] is T3, Phosphodiesterase 4. The experiment in a line: Evaluated for the inhibition of [3H]rolipram binding to membrane-bound PDE4.

Chain of 3',5'-cyclic-AMP phosphodiesterase 4D (Q08499 whole entry): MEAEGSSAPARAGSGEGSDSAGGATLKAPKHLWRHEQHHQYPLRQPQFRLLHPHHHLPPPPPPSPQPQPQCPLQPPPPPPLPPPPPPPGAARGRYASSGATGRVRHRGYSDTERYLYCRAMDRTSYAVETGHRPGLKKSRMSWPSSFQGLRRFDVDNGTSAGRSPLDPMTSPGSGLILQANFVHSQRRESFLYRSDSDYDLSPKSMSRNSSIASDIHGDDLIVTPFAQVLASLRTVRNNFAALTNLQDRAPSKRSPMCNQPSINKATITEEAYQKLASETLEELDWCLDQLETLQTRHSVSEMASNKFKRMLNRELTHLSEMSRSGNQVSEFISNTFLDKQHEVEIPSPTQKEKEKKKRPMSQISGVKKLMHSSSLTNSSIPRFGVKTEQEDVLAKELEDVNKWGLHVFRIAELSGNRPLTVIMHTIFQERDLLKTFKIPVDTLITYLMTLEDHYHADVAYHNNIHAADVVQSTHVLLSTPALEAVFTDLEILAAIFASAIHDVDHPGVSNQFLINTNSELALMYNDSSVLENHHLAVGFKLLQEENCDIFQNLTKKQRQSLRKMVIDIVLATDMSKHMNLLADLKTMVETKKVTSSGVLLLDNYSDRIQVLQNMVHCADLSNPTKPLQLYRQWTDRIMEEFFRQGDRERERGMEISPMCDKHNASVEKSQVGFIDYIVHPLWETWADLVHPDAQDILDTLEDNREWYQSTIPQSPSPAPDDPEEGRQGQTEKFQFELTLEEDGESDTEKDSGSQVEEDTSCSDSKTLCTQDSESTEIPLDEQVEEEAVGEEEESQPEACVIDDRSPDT
T2 sequence (P27815 whole entry): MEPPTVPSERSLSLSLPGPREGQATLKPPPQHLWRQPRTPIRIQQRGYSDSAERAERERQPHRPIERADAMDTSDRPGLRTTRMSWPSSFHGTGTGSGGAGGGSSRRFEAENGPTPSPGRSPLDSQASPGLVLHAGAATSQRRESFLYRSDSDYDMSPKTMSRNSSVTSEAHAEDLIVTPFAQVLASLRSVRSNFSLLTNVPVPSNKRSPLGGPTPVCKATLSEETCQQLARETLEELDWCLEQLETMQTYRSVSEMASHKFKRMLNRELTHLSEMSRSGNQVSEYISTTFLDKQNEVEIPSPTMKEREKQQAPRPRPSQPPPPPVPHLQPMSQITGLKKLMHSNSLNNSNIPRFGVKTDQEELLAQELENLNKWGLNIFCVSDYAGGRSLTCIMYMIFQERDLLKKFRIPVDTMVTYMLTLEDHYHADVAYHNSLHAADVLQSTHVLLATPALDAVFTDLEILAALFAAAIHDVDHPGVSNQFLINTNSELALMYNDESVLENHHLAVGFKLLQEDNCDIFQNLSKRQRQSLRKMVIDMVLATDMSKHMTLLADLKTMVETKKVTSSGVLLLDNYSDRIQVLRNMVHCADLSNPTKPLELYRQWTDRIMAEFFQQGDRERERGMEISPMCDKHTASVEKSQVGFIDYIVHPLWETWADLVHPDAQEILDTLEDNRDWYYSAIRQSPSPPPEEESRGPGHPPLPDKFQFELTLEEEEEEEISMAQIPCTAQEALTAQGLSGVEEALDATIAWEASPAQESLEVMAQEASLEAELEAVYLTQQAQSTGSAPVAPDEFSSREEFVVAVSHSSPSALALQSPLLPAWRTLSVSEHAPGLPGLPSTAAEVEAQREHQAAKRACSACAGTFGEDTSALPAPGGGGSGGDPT

As to `CCc1nc(-c2cc(OCC3CC3)cc(OCC3CC3)c2)c2ccc(OCCO)cc2n1`, the IC50 in assay [1] amounted to 660 nM; in assay [2], 630 nM; in assay [3] it was 850 nM.
As for `CCc1nc(-c2cc(OCC3CC3)cc(OCC3CC3)c2)c2cc(OCCO)c(OCCO)cc2n1`, the 50% inhibitory concentration (IC50) in assay [1], in assay [2] and in assay [3] was above 100000 nM each time.
`COc1cc2nc(C)nc(-c3cc(O)cc(O)c3)c2cc1OC`: the IC50 in assay [1] was 14000 nM; in assay [4] it was 23500 nM; in assay [3], 2000 nM.
Turning to `CCCCc1nc(-c2cc(OCC3CC3)cc(OCC3CC3)c2)c2cc(OC)c(OCCO)cc2n1`, the IC50 in assay [1] came to 300 nM; in assay [2] it was 1300 nM; in assay [3], 300 nM; at Phosphodiesterase 4 [5], 50 nM; against Phosphodiesterase 3, 720 nM.
In the case of `COc1nc(-c2cc(OCC3CC3)cc(OCC3CC3)c2)c2cc(OC)c(OCCO)cc2n1`, the 50% inhibitory concentration (IC50) in assay [1] was determined as 110 nM; in assay [2] it was 130 nM; in assay [3], 140 nM; at Phosphodiesterase 3, 390 nM; at Phosphodiesterase 4 [6], 210 nM.
Consider `COc1cc2nc(C)nc(-c3cc(OC(C)C)cc(OC(C)C)c3)c2cc1OC`, for which the IC50 in assay [1] stood at 1300 nM; in assay [2] it was 2300 nM; in assay [3] it was 1200 nM.
On to `COc1cc2c(-c3cc(OCC4CC4)cc(OCC4CC4)c3)nc(-c3cc(OCC4CC4)cc(OCC4CC4)c3)nc2cc1OCCO`, for which the IC50 in assay [1] amounted to 22000 nM; in assay [2], 14000 nM; in assay [3] it was 8500 nM; against Phosphodiesterase 3 it was 7800 nM.
With `CCc1nc(-c2cc(OCC3CC3)cc(OCC3CC3)c2)c2cc(OC)c(O)cc2n1`, the results for the IC50 in assay [1], in assay [2] and in assay [3] were 2400 nM, 3300 nM and 650 nM, respectively.
With `COc1cc2c(-c3cc(OCC4CC4)cc(OCC4CC4)c3)nc(-c3cccs3)nc2cc1OCCO`, the IC50 in assay [1] worked out at 1300 nM; in assay [2], 5400 nM; in assay [3], 3000 nM.
For `COc1cc2nc(C)nc(-c3cc(OCC4CC4)cc(OCC4CC4)c3)c2cc1OC`, in that order: 650 nM, 900 nM and 800 nM.
Take `COc1cc2c(-c3cc(OCC4CC4)cc(OCC4CC4)c3)nc(OCCCO)nc2cc1OCCO`: the IC50 was found to be 200 nM in assay [1]; 250 nM in assay [2]; 130 nM in assay [3]; 310 nM against Phosphodiesterase 3; 145 nM at Phosphodiesterase 4 [6].
Take `CCOC(=O)COc1cc2nc(C)nc(-c3cc(OCC4CC4)cc(OCC4CC4)c3)c2cc1OC`: the IC50 in assay [1] is 61000 nM; in assay [2] it was above 10000 nM; in assay [3], above 100000 nM; against Phosphodiesterase 3, 700 nM.
As for `CCOc1nc(-c2cc(OCC3CC3)cc(OCC3CC3)c2)c2cc(OC)c(OCCO)cc2n1`, the IC50 in assay [1] was 70 nM; in assay [2], 85 nM; in assay [3], 60 nM; against Phosphodiesterase 3, 340 nM; on Phosphodiesterase 4 [6], 43 nM.
On to `COc1cc2c(-c3cc(OCC4CC4)cc(OCC4CC4)c3)nc(NCCCO)nc2cc1OCCO`, for which the IC50 was determined as 340 nM in assay [1]; 500 nM in assay [2]; 230 nM in assay [3]; 430 nM against Phosphodiesterase 3; 200 nM on Phosphodiesterase 4 [6].
The corresponding values for `CCc1nc(-c2cc(OCC3CC3)cc(OCC3CC3)c2)c2cc(OC)c(OCCO)cc2n1` are 25 nM, 30 nM, 22 nM, 16 nM and 15 nM.
Regarding `CCc1nc(-c2cc(OCC3CC3)cc(OCC3CC3)c2)c2cc(OC)c(OCC3CC3)cc2n1`, the IC50 in assay [1] is 600 nM; in assay [2] it was 2900 nM; in assay [3], 540 nM.
`COc1cc2c(-c3cc(OCC4CC4)cc(OCC4CC4)c3)nc(OCCO)nc2cc1OCCO`: the half-inhibitory concentration (IC50) is 80 nM in assay [1], 70 nM in assay [2], 90 nM in assay [3] and 430 nM against Phosphodiesterase 3.
Consider `COc1cc2c(-c3cc(OCC4CC4)cc(OCC4CC4)c3)nc(N3CCOCC3)nc2cc1OCCO`, for which the results for the IC50 in assay [1], in assay [2] and in assay [3] were 2500 nM, 3300 nM and 1200 nM, respectively.
For the compound `CCSc1nc(-c2cc(OCC3CC3)cc(OCC3CC3)c2)c2cc(OC)c(OCCO)cc2n1`, the IC50 in assay [1] is 440 nM; in assay [2] it was 540 nM; in assay [3], 700 nM.
The corresponding values for `CCc1nc(-c2cc(OCC3CC3)cc(OCC3CC3)c2)c2cc(OC)c(OCc3ccccc3)cc2n1` are above 100000 nM, above 100000 nM and above 100000 nM.
